Experimental data as given in EP2792360A1, “(1aR,12bS)-8-cyclohexyl-11-fluoro-N-((1-methylcyclopropyl)sulfonyl)-1a-((3-methyl-3,8-diazabicyclo[3.2.1]oct-8-yl)carbonyl)-1,1a,2,2b-tetrahydrocyclopropa[d]indolo[2,1-a][2]benzazepine-5-carboxamide for use in treating HCV” (IP Gesellschaft für Management mbH, priority 2013, dated 2014).

Tests used:
[1] = Stability experiment for polymorph Form A of Compound 1 (stability chamber); assay type: physicochemical; conditions: 40 °C for 30 days
Protocol: CHARACTERIZATION EXAMPLE 13 - Stability Experiment for Polymorph Form A ({drug1a}) of Compound 1 (drug 1): The physical stability of Form A ({drug1a}) of Compound 1 (drug 1) was determined as follows. Compound 1 (drug 1) prepared according to Preparation Example 3 was analyzed by pXRD, DSC, HPLC and 1H-NMR and found to be of pure crystal Form A ({drug1a}) of 99.9 % purity (by HPLC peak area at 230 nm detection wavelength). An aliquot of the sample (3.0 g) was placed in a primary polyethylene bag, the primary bag was flushed with nitrogen gas and sealed. The primary polyethylene bag was then placed in a secondary polyethylene bag which was again flushed with nitrogen gas and a silica gel sachet was placed between the inner and the outer bag. The double bagged material was then placed in a triple laminated aluminum pouch and placed in a stability chamber at 40 °C for 30 days. Analysis by HPLC and 1H-NMR of the resulting material indicated pure Form A ({drug1a}) of Compound 1 (drug 1) of 99.9 % purity (by HPLC peak area at 230 nm). […] The triclinic cell parameters were determined to be: a = 14.835(7) A, b = 15.216(8) A, c = 18.790(10) A, alpha = 90.306(7) °, beta = 93.619(7) °, gamma = 1 13.045(7) °, volume = 3893(3) A3. The space group was determined to be P-1. The molecular weight was 468.23 giving a calculated density of 1.598g/cm3, and µ(Mo) = 0.50mm"1 for Z = 8. […]

[2] = Relative stability (non-competitive and competitive interconversion) experiments of crystal forms of Compound 1
Protocol: For the non-competitive experiments, only a single starting crystal form was used to study the potential conversion to another more stabb form. […] The slurry was cooled to 25-30 °C, filtered, suction dried for 1 hour and dried in a vacuum oven at 70 °C and 8 kPa absolute pressure for 12 hours. […] The slurry was cooled to 25-30 °C, filtered, suction dried for 1 hour and dried in a vacuum oven at 70 °C and 8 kPa absolute pressure for 12 hours. […] The slurry was cooled to 25-30 °C, filtered, suction dried for 1 hour and dried in a vacuum oven at 70 °C and 8 kPa absolute pressure for 12 hours.

[3] = Hygroscopicity of solid forms of compound of formula (IV) (Ph. Eur. classification); assay type: physicochemical
Protocol: For the thermogravimetric analyses, approx. 5 - 10 mg of sample were placed in aluminum pans, accurately weighed and hermetically closed with perforation lids. […] The samples were then heated under a flow of nitrogen of about 50 mL/min using a heating rate of 5 K/min. The term "micronization" denotes a process whereby the particle size of a solid material is diminished to a d50 value of less than IOµm by the aid of a suitable method, such as milling, bashing or grinding. […] The term "anti-solvent crystallization" denotes a process wherein supers aturation and as a result thereof crystallisation is achieved by addition of an antisolvent to the product solution. The term "ambient conditions" denotes conditions as experienced in a standard laboratory, e.g. atmospheric pressure, air, ambient temperature between 18 °C and 28 °C, humidity between 30 %rH and 80 %rH. The term "hygroscopicity" describes the ability of a solid material to adsorb moisture. The hygroscopicity of a given API is characterized [European Pharmacopoeia - 6th Edition (2008), Chapter 5.11) by the increase in mass when the relative humidity is raised from 0 %rH to 90 %rH: o non-hygroscopic: weight increase Am < 0.2%; o slightly hygroscopic: weight increase 0.2% < Am < 2.0%; o hygroscopic: weight increase 2.0% < Am < 15.0%; o very hygroscopic: weight increase Am > 15.0%; o deliquescent: sufficient water is adsorbed to form a liquid. The IUPAC lamda convention (W.H. Powell, Pure & Appl. Chem. […] The bonding number "n" of a heteroatom is the sum of the total number of valence bonds to adjacent atoms, if any, and the number of attached hydrogen atoms. The bonding number of a heteroatom is standard when it has the value given in the following table: n=4: C, Si, Ge, Sn, Pb; n=3 B, N, P, As, Sb, Bi, n=2: O, S, Se, Te, Po; n=l; F, CI, Br, I, At. A nonstandard bonding number of a (neutral) heteroatom is indicated by the symbol "λη", where "n" is the bonding number. […]

[4] = Solid form stability of forms of compound of formula (IV) (Temperature / Humidity Controlled XRPD, storage, suspension); assay type: physicochemical
[5] = in vitro dissolution of micronized powders in SGF and FeSSIF (miniaturized, non-sink); assay type: physicochemical
Protocol: Example 28: in vitro Dissolution Results: The in vitro dissolution studies performed in this work were conducted in a miniaturized system with 100 mL dissolution medium per experiment. […] Simulated gastric fluid (SGF) was prepared with 2 g/L NaCl and 1 g/L Triton® X-100 in 0.1 N HCl. The resulting measured pH of SGF was 1.2. Simulated fed state intestinal fluid (FeSSIF) was prepared as previously reported in […]. et al. (Pharm. Res. […] Oral absorption of a drug compound from a solid dosage form is dependent on dissolution rate and solubility. […] Figure 21 of WO/2013/057124presents the dissolution profiles measured in simulated gastric fluid (SGF) and Figure 22 of WO/2013/057124shows the dissolution profiles in simulated fed state intestinal fluid (FeSSIF). […] Changes of pH values in the dissolution test samples taken at different time points were not observed. The ranking of the different solid forms with respect to dissolution speed and maximum drug concentration achieved was identical in both media. The differences in the dissolution profiles in SGF and FeSSIF can be explained by the different composition of the two media since the dissolution generally depends on a variety of factors such as pH, surfactant, buffer capacity, ionic strength, etc. […]

physchem = assay: physchem
Protocol: Anal. Chem. Instrum. […] Drug Delivery Rev. […] The binding constant (K) of the gamma-CD inclusion complex ({drug4g}) was calculated from the initial straight line portion of the phase solubility diagram by linear regression, according to the following equation [T. Higuchi et al., Adv. Anal. Chem. Instrum.

COc1ccc(Cl)c(S(=O)(=O)NC(=O)c2cn3cc(C(F)(F)F)cc(Cl)c3n2)c1 [Form A ({drug1a}), 8-chloro-N-[(2-chloro-5-methoxyphenyl)sulfonyl]-6-(trifluoromethyl)-imidazo[1,2-a]pyridine-2-carboxamide]
crystal form by pXRD and DSC after storage [1]: pure polymorphForm A
purity (by HPLC peak area at 230 nm) after storage ([1]; double polyethylene bags under nitrogen in aluminum pouch, 99.9 % before storage): 99.9%
crystal form of the resulting material ([2]; non-competitive, refluxed in deionized water at about 95 °C for 3 hours, pXRD, DSC, TGA, 1H-NMR): remained unchanged
relative thermodynamic stability of polymorph form ([2]; water heated to 95 °C or methanol heated to 55 °C): most thermodynamically stable polymorph form

Cc1onc(-c2ccc(F)cc2)c1COc1ccc(C(=O)N2CCS(=O)(=O)CC2)cn1 [Form C ({drug4c}), (1,1-dioxo-1lambda6-thiomorpholin-4-yl)-{6-[3-(4-fluoro-phenyl)-5-methyl-isoxazol-4-ylmethoxy]-pyridin-3-yl]-methanone]
hygroscopicity relative to Form A [3]: less hygroscopic than Form A
behaviour in the presence of water in suspended state [4]: transforms into Form B
thermodynamic stability of the solid form [4]: most stable polymorph overall
phase change upon storage at 100 rH at ambient temperature ([4]; Form C: prolonged period, e.g. 30 days): does not induce this phase change
solid form changes at elevated temperature ([4]; Temperature Controlled XRPD): do not show solid form changes
solubility in simulated gastric fluid (SGF) [5]: considerably improved as compared to Form B

Cc1onc(-c2ccc(F)cc2)c1COc1ccc(C(=O)N2CCS(=O)(=O)CC2)cn1 [gamma-CD inclusion complex ({drug4g}), (1,1-dioxo-1lambda6-thiomorpholin-4-yl)-{6-[3-(4-fluoro-phenyl)-5-methyl-isoxazol-4-ylmethoxy]-pyridin-3-yl]-methanone]
binding constant (K) (physchem): 510.4 M⁻¹
initial concentration achieved in dissolution ([5]; SGF and FeSSIF, room temperature, dropped in the first 60 min to a level comparable to polymorph C): much higher initial concentration
